Measurements reported in publication PMC12509328, “Human Internal Exposures of Bisphenol A and Six Data-Poor Analogs Predicted by Physiologically Based Kinetic Models with Multimodal Parametrization” (Environmental Science & Technology, 2025).
Like-named read-outs stand apart in the source and are kept apart here. Marks after values point to notes of the source that are not given here.

Key:
[1] = system: human small intestinal S9; assay: Glucuronidation in human small intestinal S9; format: in vitro ADME
Description: Supplementary information on glucuronidation kinetics measurement […]
µg/mL alamethicin, and 10 mM magnesium chloride. Negative controls using 0.1 M Tris-HCl […]
without UDPGA were included.
37° C with 350 rpm shaking. […]
at -20 °C for 1 h to precipitate proteins. The resulting mixture was centrifuged (10 min, 4 °C, 15,000 rcf). Supernatants were analyzed using High-performance liquid chromatography (HPLC) with diode array detector (DAD). Similar experiments were conducted for BPA, BPB, BPE, and […]
Bisphenol concentrations ranged
The retention times for the various bisphenols […]
(§1) and their glucuronides are provided in Supplementary Table S7. Calibration curves were set from concentrations ranging from 1 to 100 µM.

Human Liver S9 = assay: Glucuronidation kinetics in human liver S9; conditions: human liver S9 fractions; for Vmax hepatic glucuronidation / Km: GraphPad Prism fitting; for Ksi hepatic glucuronidation: substrate inhibition fit; for Km: read-out: Km hepatic glucuronidation
Description: (§2) The glucuronidation kinetics of BPA, BPB, BPE, BPF, BPAF, and BPM were determined as described in the Supporting Information (Tables S6 and S7). Outliers were excluded using the Nalimov test.
(§3) Supplementary information on glucuronidation kinetics measurement
(§4) BPA, BPB, BPE and BPM were incubated with Corning® UltraPool™ Human Liver S9 in a buffer […]
(§5) containing UDPGA. […]
(§6) S9 protein). For each assay, an S9 aliquot was thawed on ice, and a reaction master mix was prepared with 0.1 mg S9 protein/mL in either 0.1 M (for BPA, BPB, BPAF, and BPF) or […] (for BPE and BPM) Tris-HCl, along with 10 mM UDPGA in 50 mM Tris-HCl (pH 7.4), 25 µg/mL alamethicin, and 10 mM magnesium chloride. Negative controls using 0.1 M Tris-HCl without UDPGA were included. Each reaction solution (100 µL) was pre-incubated for 5 min at 37° C with 350 rpm shaking. To this solution was added bisphenol solutions (0 to 20 mM) in DMSO in a ratio of 1:100 to achieve final bisphenol concentrations of 0 to 200 µM and 1% (v/v) […]
(§7) glucuronidation reaction was stopped by adding cold methanol (160 μL) and samples were kept at -20 °C for 1 h to precipitate proteins. The resulting mixture was centrifuged (10 min, 4 °C, 15,000 rcf). Supernatants were analyzed using High-performance liquid chromatography (HPLC) with diode array detector (DAD). […]
(§8) A gradient elution […]
(§9) was used with water containing 0.1% formic acid as eluent A and acetonitrile with 0.1% formic acid as eluent B. The initial condition of 15% eluent B was increased to 65% eluent B over 20 min, and then to 90% eluent B in the next 5 min. […]
as §1

[2] = Glucuronidation kinetics in human liver S9; conditions: human
Description: as §2, §3, §4, §5, §6, §7, §8, §9, §1

[3] = Glucuronidation kinetics in rat liver S9; conditions: male, Sprague-Dawley, rat, rat liver S9, pH 7.4
Description: as §2, §3
as §6, with “BPA, BPB, BPE and BPM were incubated with Corning® UltraPool™ Human Liver S9 in a buffer containing UDPGA. The S9 reagent (20 mg protein/mL) was aliquoted and stored at -80° C until use. BPAF and BPF were incubated similarly with rat liver S9 (Sprague-Dawley, male, 0.1 mg/mL S9 protein).” for “S9 protein).”
as §7, with “(DAD). Similar experiments were conducted for BPA, BPB, BPE, and BPM with human small intestinal S9 mix (0.025 to 0.25 mg/mL). Bisphenol concentrations ranged from 5 to 120 µM, and incubation times from 15 to 120 min.” for “(DAD).”
(§10) series HPLC system with a Waters XBridge BEH130 C18 column (4.6 × 150 mm, 3.5 μm particle size) for separation and a DAD set to a detection wavelength of λ = 280 nm. A gradient elution was used with water containing 0.1% formic acid as eluent A and acetonitrile with 0.1% formic acid as eluent B. The initial condition of 15% eluent B was increased to 65% eluent B over 20 min, and then to 90% eluent B in the next 5 min. […]
as §1

[4] = system: rat liver S9 (Sprague-Dawley, male); assay: Glucuronidation kinetics in rat liver S9
Description: as §2, §3
as §6, with “BPA, BPB, BPE and BPM were incubated with Corning® UltraPool™ Human Liver S9 in a buffer containing UDPGA. The S9 reagent (20 mg protein/mL) was aliquoted and stored at -80° C until use. BPAF and BPF were incubated similarly with rat liver S9 (Sprague-Dawley, male, 0.1 mg/mL S9 protein).” for “S9 protein).”
as §7, with “(DAD). Similar experiments were conducted for BPA, BPB, BPE, and BPM with human small intestinal S9 mix (0.025 to 0.25 mg/mL). Bisphenol concentrations ranged from 5 to 120 µM, and incubation times from 15 to 120 min.” for “(DAD).”
as §10, §1

[5] = Present human PBK model, model evaluation (scenarios 3 and 4); conditions: for predicted blood C max, times higher than in vivo observed / predicted blood C max as percent of the observed value: average; for predicted AUC, times higher than observed: present model vs Teeguarden et al. (BPA dosing); for predicted blood C max as percent of the observed value: present model vs Teeguarden et al.
Source text: Several exposure scenarios were defined for parameter gathering, model evaluation, and internal exposure assessment (Table ). In scenarios 1 and 2, a rat PBK model was used to parametrize enterohepatic circulation (EHC) rates for application in human PBK models. […] Models were developed for four human physiologies: male (“man”) and female adults (“woman”), male “child”, and male “toddler” (Table S2). These models were selected based on available physiological data for key organs (thyroid, breasts, and testes), related to ED and the detected bisphenol exposure level. The repeated dose scheme from Karrer et al. was reproduced (scenarios 9 to 12) to model chronic exposure via three meals a day.
When not individually compartmentalized, organs were categorized as either slowly perfused tissues or rapidly perfused tissues and combined. Compartments related to the thyroid, testes, and breasts (depending on sex) were included in human but not rat models. Code was compiled in Berkeley Madonna 10 and Python (see Supporting Information and GitLab: https://gitlab.ethz.ch/eth_toxlab/pbk_model_bisphenol_analogs).
These PBK models were parametrized using a multimodal framework that integrates new approach methodology tools into a reproducible chemical-family wide workflow. This framework combines QSARs, in vitro experiments, and cross-species extrapolation to parametrize PBK models for a family of compounds, some of which were considered data-poor (Figure ). […] Organism-based parameters were tailored to account for species, sex, and age when possible (Figure and Table S2). − Parameters based on both the organism and chemical were partition coefficients, intestinal uptake, EHC rate, and glucuronidation kinetics (Figure ).
To address parameter uncertainty in concentrations that were predicted with human PBK models, 10,000 Monte Carlo (MC) simulations were performed. Each sensitive parameter was resampled according to probability distributions from the literature (Table S8). ,− To ensure physiological plausibility, EHC rates were constrained between 0 and 1, and the sum of all relative organ weights and the sum of all relative organ blood flows were kept constant. MC simulation outcomes were analyzed by comparing the first quartile, the median, and the third quartile values of concentrations per time point.

[6] = set-up: method as in Oh et al.; conditions: blood, in vivo, 4 men and 3 women, ref Oh et al., cited from earlier work; for Cmax: 8.75 μg/kg bw d4-BPS in a chocolate cookie; for AUC / t max: 8.75 μg/kg bw d4-BPS
[7] = set-up: method as in Oh et al.; conditions: blood; previous model, BPS; ref Oh et al.; cited from earlier work
[8] = set-up: method as in Thayer et al.; conditions: ref Thayer et al., cited from earlier work
[9] = set-up: method as in Teeguarden et al.; conditions: ref Teeguarden et al., cited from earlier work
[10] = ref Yang et al.; cited from earlier work
[11] = blood; previous model, BPA; ref Karrer et al.; cited from earlier work
[12] = rat liver S9 fractions, GraphPad Prism fitting
[13] = present model vs Oh et al. (BPS dosing)
[14] = blood, in vivo, 10 men, 30 μg/kg bw d6-BPA in soup

## CCC(C)(c1ccc(O)cc1)c1ccc(O)cc1 [BPB, Bisphenol B]
[1]
  glucuronidation rates in small intestinal S9 fractions: negligible
Human Liver S9
  Vmax hepatic glucuronidation: 5.81 nmol/min/mg
  Ksi hepatic glucuronidation: 21.48 µM
[2]; human liver S9, pH 7.4
  Km: 12.3 µM

## Oc1ccc(C(c2ccc(O)cc2)(C(F)(F)F)C(F)(F)F)cc1 [BPAF, Bisphenol AF]
[3]
  Km: 49.7 µM
[4]; [12]
  Vmax hepatic glucuronidation: 7.10 nmol/min/mg
[4]; rat liver S9 fractions, substrate inhibition fit
  Ksi hepatic glucuronidation: 27.63 µM

## O=C(O)[C@H]1O[C@@H](Oc2ccc(S(=O)(=O)c3ccc(O)cc3)cc2)[C@H](O)[C@@H](O)[C@@H]1O [BPS glucuronide]
[5]; [13]
  mean predicted AUC, times higher than in vivo: about 2.4 times
  predicted blood C max, times higher than in vivo observed: 2.8 times
[6]
  Cmax: 10.5 nM
  AUC: 78.7 (54–103) ^d nM x day
  t max: 1.0 (1.0–1.0) ^d h

## O=S(=O)(c1ccc(O)cc1)c1ccc(O)cc1 [BPS, Bisphenol S]
[5]; [13]
  delay of average predicted t max vs measure: 1.7 h
  predicted blood C max, times higher than in vivo observed: 1.6 times
[6]
  Cmax: 8.79 nM
  AUC: 40 − , ^d nM x day
  t max: 0.5 (0.25–0.5) ^d h
[7]
  AUC: 39.8 − ^, ^e nM x day
  Cmax: 10.1 nM
  t max: 0.57 (0.26–0.88) ^e h

## Oc1ccc(Cc2ccc(O)cc2)cc1 [BPF, Bisphenol F]
[4]; [12]
  Vmax hepatic glucuronidation: 1.17 nmol/min/mg
[4]; rat model code
  Vmax hepatic glucuronidation: 1.173 nmol/min/mg
[4]; read-out: Km hepatic glucuronidation, rat liver S9 fractions, GraphPad Prism fitting
  Km: 47.5 µM

## CC(C)(c1ccc(O)cc1)c1ccc(O)cc1 [BPA, bisphenol A]
[5]
  predicted AUC, times higher than observed: about 1.5 times
  predicted blood C max as percent of the observed value: 63%
[8]; at 24 h, range 92–100%
  urinary excretion: 98%
[8]; by 48 h
  cumulative urinary excretion: 80–110%
[8]
  urinary fraction of unconjugated BPA: 0.029%
[8]; within 12 h post exposure, range 86–98%
  total BPA excreted: 94%
[9]; at 24 h, range 90–116%
  urinary excretion: 104%
[9]; [14]
  AUC: 2.5 (1.4–5.7) ^a nM x day
[9]
  urinary fraction of unconjugated BPA: 0.03%
[10]
  glucuronidated BPA undergoing EHC: ten
[1]
  glucuronidation rates in small intestinal S9 fractions: negligible
[11]
  AUC: 4.15 (2.91–5.15) ^c nM x day
  Cmax: 1.31 nM
  t max: 0.72 (0.67–0.77) ^c h
Human Liver S9
  Vmax hepatic glucuronidation: 4.06 nmol/min/mg
[2]; pH 7.4
  Km: 13.1 µM

## CC(C)(c1ccc(O)cc1)c1ccc(O[C@@H]2O[C@H](C(=O)O)[C@@H](O)[C@H](O)[C@H]2O)cc1 [BPA glucuronide]
[5]
  predicted AUC, times higher than observed: about 1.5 times
  predicted blood C max as percent of the observed value: 80%
[9]; blood, in vivo, 10 men, 30 μg/kg bw d6-BPA in 355 mL of soup, (range)
  Cmax: 286 nM
[9]; [14]
  AUC: 680 (571–1′210) ^a nM x day
  t max: 1.2 (0.8–2.2) ^a h
[11]
  Cmax: 610 nM
  t max: 0.94 (0.93–0.97) ^c h

## CC(c1ccc(O)cc1)c1ccc(O)cc1 [BPE, Bisphenol E]
[1]
  glucuronidation rates in small intestinal S9 fractions: negligible
Human Liver S9
  Vmax hepatic glucuronidation: 3.42 nmol/min/mg
  Ksi hepatic glucuronidation: 280.6 µM
  Km: 51.3 µM

## CC(C)(c1ccc(O)cc1)c1cccc(C(C)(C)c2ccc(O)cc2)c1 [BPM, Bisphenol M]
[1]
  glucuronidation rates in small intestinal S9 fractions: negligible
Human Liver S9
  Vmax hepatic glucuronidation: 4.89 nmol/min/mg
  Ksi hepatic glucuronidation: 51.75 µM
  Km: 20.2 µM
